Data taken from patent publication US20110281179A1, “NON-AQUEOUS ELECTROLYTIC SOLUTION, AND LITHIUM BATTERY COMPRISING SAME” (UBE INDUSTRIES, LTD., priority 2008, published 2011).

Test: pKa (acid dissociation constant)
Type: physicochemical
Description: Here, the pKa value is also called an acid dissociation constant, and the pKa can be measured by an ordinary method. For example, the pKa can be determined in accordance with the method described in Experimental Chemistry Seminar 5 “Thermal Measurement and Equilibrium”, p. 460 (edited by the Chemical Society of Japan, published by Maruzen Company, Limited.).
Oc1c(F)c(F)cc(F)c1F [2,3,5,6-Tetrafluorophenol] gave a pKa of 5.5. Oc1c(Cl)c(Cl)c(Cl)c(Cl)c1Cl [Pentachlorophenol] showed a pKa of 4.7. With Oc1ccc(F)cc1 [4-Fluorophenol] the pKa was 9.9. Molecule Oc1ccc(F)cc1F [2,4-Difluorophenol] has a pKa of 8.4. With Oc1ccc(F)c(F)c1F [2,3,4-Trifluorophenol] the pKa was 6.
